From patent US20150307520A1, “NOVEL HETEROARYL AND HETEROCYCLE COMPOUNDS, COMPOSITIONS AND METHODS THEREOF” (HUTCHISON MEDIPHARMA LIMITED, priority 2012, published 2015)

Key:
Format in all cases: biochemical
[1] = biological target: p110β/p85α (Homo sapiens, UniProt P42338); assay: Transcreener KINASE Assay, kinase inhibition of p110β/p85α; details: for PI3Kβ IH % @ 1 uM: 1 uM test compound; for IC50: read-out: PI3Kβ IC50
In short: (§1)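 ADP production was read by fluorescence polarization immunoassay (60 min detection step) after an 80 min room-temperature reaction of p110/p85α enzyme, compound in 2% DMSO, and PIP2/ATP solution (30 uM/10 uM as added) in HEPES buffer with MgCl2 and DTT. IC50s came from inhibition versus the DMSO control.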

[2] = biological target: p110γ (Homo sapiens, UniProt P48736); assay: Transcreener KINASE Assay, kinase inhibition of p110γ; details: for PI3Kγ IH % @ 1 uM: 1 uM test compound; for IC50: read-out: PI3Kγ IC50
In short: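 FP read-out: far-red competitive immunoassay sensing ADP produced by recombinant p110/p85 or p110γ enzyme. Reaction 80 min RT, then detection mix 60 min RT. IC50 from curve fit.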

[3] = biological target: p110δ/p85α (Homo sapiens, UniProt O00329); assay: Transcreener KINASE Assay, kinase inhibition of p110δ/p85α; details: for PI3Kδ IH % @ 1 uM: 1 uM test compound; for IC50: read-out: PI3Kδ IC50
In short: as §1

Sequence of p110δ/p85α (O00329 whole entry): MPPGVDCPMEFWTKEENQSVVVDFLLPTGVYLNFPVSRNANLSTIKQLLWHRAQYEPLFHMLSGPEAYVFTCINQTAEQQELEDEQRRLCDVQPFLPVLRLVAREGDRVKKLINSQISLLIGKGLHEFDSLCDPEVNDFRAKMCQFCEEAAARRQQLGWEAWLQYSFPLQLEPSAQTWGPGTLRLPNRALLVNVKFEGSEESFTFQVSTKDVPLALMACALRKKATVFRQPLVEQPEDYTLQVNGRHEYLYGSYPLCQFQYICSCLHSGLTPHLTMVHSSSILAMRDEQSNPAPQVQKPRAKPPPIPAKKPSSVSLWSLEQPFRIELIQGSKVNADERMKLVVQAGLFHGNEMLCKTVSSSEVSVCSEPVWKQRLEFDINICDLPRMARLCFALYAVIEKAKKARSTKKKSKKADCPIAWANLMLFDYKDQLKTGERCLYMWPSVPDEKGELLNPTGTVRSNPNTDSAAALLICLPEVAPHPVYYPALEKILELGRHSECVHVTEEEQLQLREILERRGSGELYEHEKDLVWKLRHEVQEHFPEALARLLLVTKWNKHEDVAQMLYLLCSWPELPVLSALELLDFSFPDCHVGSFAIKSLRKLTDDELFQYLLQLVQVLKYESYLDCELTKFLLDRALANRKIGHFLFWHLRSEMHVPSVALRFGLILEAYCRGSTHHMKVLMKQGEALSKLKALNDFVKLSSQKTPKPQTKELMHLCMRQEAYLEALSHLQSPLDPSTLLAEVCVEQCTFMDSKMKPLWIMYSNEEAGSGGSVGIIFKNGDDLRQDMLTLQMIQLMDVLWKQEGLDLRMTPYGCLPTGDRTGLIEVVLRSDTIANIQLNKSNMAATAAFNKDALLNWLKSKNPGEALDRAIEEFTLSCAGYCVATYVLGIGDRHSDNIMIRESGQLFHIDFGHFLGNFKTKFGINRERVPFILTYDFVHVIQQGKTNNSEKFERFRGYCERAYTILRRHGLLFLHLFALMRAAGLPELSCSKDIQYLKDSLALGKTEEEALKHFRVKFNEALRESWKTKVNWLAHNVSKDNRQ
Sequence of p110δ/p85α (P27986 whole entry partner): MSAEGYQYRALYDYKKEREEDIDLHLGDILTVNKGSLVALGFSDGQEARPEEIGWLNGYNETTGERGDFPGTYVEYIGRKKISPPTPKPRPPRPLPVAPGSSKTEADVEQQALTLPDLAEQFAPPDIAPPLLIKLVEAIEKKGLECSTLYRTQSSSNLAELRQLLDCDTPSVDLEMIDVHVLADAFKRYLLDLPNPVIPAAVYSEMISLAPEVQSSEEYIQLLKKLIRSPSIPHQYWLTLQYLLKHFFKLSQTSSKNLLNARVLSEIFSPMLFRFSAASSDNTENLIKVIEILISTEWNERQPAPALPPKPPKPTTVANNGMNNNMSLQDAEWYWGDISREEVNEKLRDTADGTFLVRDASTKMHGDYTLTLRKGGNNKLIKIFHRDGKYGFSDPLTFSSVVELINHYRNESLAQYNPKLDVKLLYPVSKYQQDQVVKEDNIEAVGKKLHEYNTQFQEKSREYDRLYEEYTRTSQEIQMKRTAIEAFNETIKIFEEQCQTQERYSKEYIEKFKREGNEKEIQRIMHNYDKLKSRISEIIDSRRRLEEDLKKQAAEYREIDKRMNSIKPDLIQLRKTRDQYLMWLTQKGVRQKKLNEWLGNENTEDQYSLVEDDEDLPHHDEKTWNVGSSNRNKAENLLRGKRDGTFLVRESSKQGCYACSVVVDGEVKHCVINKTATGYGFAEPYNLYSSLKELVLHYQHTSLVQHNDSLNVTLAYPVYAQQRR
Sequence of p110β/p85α (P42338 whole entry): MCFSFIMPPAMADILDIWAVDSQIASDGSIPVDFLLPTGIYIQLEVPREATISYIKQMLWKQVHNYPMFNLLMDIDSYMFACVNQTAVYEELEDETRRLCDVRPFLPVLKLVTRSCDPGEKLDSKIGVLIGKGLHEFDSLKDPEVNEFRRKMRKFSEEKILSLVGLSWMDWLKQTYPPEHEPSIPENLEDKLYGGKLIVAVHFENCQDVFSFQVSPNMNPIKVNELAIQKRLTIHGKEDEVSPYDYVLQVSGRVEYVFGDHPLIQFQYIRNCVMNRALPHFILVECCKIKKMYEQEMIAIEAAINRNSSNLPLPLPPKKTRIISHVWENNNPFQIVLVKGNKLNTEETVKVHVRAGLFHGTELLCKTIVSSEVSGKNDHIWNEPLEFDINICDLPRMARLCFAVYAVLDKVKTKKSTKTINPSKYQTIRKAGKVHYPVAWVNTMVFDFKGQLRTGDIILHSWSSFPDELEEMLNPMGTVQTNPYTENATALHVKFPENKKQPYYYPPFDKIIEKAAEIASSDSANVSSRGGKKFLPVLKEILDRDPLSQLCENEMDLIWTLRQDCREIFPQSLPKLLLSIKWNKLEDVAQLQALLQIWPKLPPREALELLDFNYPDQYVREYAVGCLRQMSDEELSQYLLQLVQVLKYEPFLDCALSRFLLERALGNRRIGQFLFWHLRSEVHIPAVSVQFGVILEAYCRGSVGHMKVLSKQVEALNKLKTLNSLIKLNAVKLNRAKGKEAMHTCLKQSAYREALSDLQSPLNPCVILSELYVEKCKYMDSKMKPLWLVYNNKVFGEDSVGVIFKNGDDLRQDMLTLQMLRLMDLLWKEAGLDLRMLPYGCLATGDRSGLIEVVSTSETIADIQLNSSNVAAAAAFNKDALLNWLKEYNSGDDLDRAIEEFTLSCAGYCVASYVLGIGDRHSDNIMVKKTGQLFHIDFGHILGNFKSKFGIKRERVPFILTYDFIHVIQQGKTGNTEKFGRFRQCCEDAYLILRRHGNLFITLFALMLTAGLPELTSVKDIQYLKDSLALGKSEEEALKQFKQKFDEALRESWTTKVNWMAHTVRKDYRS
Sequence of p110β/p85α (P27986 2-724 partner): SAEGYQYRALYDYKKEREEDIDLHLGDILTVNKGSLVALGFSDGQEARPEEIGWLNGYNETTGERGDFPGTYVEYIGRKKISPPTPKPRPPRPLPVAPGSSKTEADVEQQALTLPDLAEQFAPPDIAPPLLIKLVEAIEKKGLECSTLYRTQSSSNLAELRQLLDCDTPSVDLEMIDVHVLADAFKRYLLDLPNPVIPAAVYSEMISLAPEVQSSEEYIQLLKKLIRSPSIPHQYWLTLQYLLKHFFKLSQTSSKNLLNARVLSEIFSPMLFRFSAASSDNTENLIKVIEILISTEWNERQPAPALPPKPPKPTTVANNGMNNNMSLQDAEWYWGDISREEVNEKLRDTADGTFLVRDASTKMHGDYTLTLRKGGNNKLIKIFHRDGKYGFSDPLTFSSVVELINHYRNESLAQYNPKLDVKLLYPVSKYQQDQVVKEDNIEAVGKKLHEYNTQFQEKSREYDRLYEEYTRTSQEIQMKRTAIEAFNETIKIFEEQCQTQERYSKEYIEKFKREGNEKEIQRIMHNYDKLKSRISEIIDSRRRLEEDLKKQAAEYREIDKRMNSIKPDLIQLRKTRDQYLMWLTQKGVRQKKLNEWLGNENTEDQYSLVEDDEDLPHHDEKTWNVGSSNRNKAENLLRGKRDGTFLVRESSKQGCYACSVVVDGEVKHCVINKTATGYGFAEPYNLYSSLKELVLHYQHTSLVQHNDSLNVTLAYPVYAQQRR
Sequence of p110γ (P48736 whole entry): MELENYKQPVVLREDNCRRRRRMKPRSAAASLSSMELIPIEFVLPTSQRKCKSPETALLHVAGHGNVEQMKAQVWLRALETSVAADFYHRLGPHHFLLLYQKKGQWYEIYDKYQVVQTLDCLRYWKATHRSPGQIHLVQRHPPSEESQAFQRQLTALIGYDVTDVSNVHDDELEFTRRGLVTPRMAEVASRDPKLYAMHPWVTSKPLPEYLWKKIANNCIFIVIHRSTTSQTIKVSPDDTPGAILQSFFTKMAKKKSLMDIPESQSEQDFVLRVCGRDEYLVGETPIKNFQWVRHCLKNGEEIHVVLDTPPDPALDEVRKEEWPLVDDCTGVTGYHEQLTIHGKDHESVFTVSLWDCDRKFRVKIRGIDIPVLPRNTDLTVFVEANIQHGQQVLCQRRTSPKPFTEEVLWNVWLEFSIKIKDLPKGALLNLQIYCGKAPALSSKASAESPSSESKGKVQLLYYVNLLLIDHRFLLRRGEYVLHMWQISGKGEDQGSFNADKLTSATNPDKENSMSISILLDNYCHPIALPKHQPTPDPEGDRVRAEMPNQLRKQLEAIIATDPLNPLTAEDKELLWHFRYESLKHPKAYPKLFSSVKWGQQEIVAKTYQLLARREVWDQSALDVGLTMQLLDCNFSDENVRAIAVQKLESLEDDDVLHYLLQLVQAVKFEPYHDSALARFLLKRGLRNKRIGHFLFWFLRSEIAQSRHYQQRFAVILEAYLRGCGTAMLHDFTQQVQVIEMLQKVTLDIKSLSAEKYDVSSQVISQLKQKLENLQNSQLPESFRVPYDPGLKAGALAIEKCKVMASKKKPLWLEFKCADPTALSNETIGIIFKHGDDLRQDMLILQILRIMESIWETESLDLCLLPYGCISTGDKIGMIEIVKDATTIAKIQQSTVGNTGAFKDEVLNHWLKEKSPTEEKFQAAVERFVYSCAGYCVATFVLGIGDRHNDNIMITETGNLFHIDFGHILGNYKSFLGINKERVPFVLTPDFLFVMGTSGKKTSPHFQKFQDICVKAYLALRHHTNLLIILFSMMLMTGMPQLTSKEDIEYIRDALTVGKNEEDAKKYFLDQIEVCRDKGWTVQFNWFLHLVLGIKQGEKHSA

SMILES: N#Cc1c[nH]c2ncnc(N3CC[C@H]3c3nn4ccc(Cl)c4c(=O)n3-c3ccccn3)c12 [Compound 309, (S)-4-(2-(5-chloro-4-oxo-3-(pyridin-2-yl)-3,4-dihydropyrrolo[2,1-f][1,2,4]triazin-2-yl)azetidin-1-yl)-7H-pyrrolo[2,3-d]pyrimidine-5-carbonitrile]
- PI3Kβ IH % @ 1 uM [1]: 35.5%
- PI3Kγ IH % @ 1 uM [2]: 94.6%
- IC50 [2]: 99 nM
- PI3Kδ IH % @ 1 uM [3]: >100%
- IC50 [3]: 11 nM

SMILES: CC(=O)c1c[nH]c2ncnc(N3CC[C@H]3c3nn4ccc(Cl)c4c(=O)n3-c3ccccn3)c12 [Compound 312]
- PI3Kβ IH % @ 1 uM [1]: 20.0%
- PI3Kγ IH % @ 1 uM [2]: 93.7%
- IC50 [2]: 67 nM
- PI3Kδ IH % @ 1 uM [3]: 97.1%
- IC50 [3]: 23 nM

SMILES: O=c1c2c(F)ccn2nc([C@@H]2CCCN2c2ncnc3[nH]cnc23)n1-c1ccccn1 [Compound 313]
- PI3Kβ IH % @ 1 uM [1]: 52.6%
- PI3Kγ IH % @ 1 uM [2]: 77.2%
- IC50 [2]: 423 nM
- PI3Kδ IH % @ 1 uM [3]: 100.0%
- IC50 [3]: 3 nM

SMILES: Nc1nc(N2CC[C@H]2c2nn3ccc(Cl)c3c(=O)n2-c2ccccc2)n2ncc(Cl)c2n1 [Compound 314, (S)-2-(1-(2-amino-8-chloropyrazolo[1,5-a][1,3,5]triazin-4-yl)azetidin-2-yl)-5-chloro-3-phenylpyrrolo[2,1-f][1,2,4]triazin-4(3H)-one]
- PI3Kβ IH % @ 1 uM [1]: 16.8%
- PI3Kγ IH % @ 1 uM [2]: 54.1%
- PI3Kδ IH % @ 1 uM [3]: 17.2%

SMILES: N#Cc1cc2nc(N)nc(N3CCC[C@H]3c3nn4ccc(Cl)c4c(=O)n3-c3ccccc3)n2n1 [Compound 320]
- PI3Kβ IH % @ 1 uM [1]: 5.5%
- PI3Kγ IH % @ 1 uM [2]: 55.9%
- PI3Kδ IH % @ 1 uM [3]: 29.1%

SMILES: CC(=O)c1cnc(N)nc1N1CCCC1c1cn2ccc(Cl)c2c(=O)n1-c1ccccc1 (stereo not drawn) [Compound 321]
- PI3Kβ IH % @ 1 uM [1]: 80.5%
- IC50 [1]: 218 nM
- PI3Kγ IH % @ 1 uM [2]: >100%
- IC50 [2]: 11 nM
- PI3Kδ IH % @ 1 uM [3]: 100.0%
- IC50 [3]: 5 nM

SMILES: Cc1nc(N)nc(N2CC[C@H]2c2nn3ccc(F)c3c(=O)n2-c2ccccc2)c1C#N [Compound 322]
- PI3Kβ IH % @ 1 uM [1]: 58.0%
- PI3Kγ IH % @ 1 uM [2]: >100%
- IC50 [2]: 27 nM
- PI3Kδ IH % @ 1 uM [3]: 99.5%
- IC50 [3]: 5 nM

SMILES: CC(=O)c1cnc(N)nc1N1CC[C@H]1c1nn2ccc(F)c2c(=O)n1-c1ccccc1 [Compound 323]
- PI3Kβ IH % @ 1 uM [1]: 6.1%
- PI3Kγ IH % @ 1 uM [2]: >100%
- IC50 [2]: 21 nM
- PI3Kδ IH % @ 1 uM [3]: 99.4%
- IC50 [3]: 12 nM

SMILES: CC(=O)c1cnc(N)nc1N1C[C@H](C)[C@H]1c1nn2ccc(F)c2c(=O)n1-c1ccccc1 [Compound 324]
- PI3Kβ IH % @ 1 uM [1]: 67.1%
- IC50 [1]: 456 nM
- PI3Kγ IH % @ 1 uM [2]: >100%
- IC50 [2]: 5 nM
- PI3Kδ IH % @ 1 uM [3]: 98.8%
- IC50 [3]: 1 nM

SMILES: Nc1ncc(C(=O)C2CC2)c(N2CC[C@H]2c2nn3ccc(Cl)c3c(=O)n2-c2ccccc2)n1 [Compound 326]
- PI3Kβ IH % @ 1 uM [1]: −23.5%
- PI3Kγ IH % @ 1 uM [2]: 50.7%
- PI3Kδ IH % @ 1 uM [3]: 7.1%

SMILES: Nc1nc2c(c(N3CCCC3c3cn4ccc(Cl)c4c(=O)n3-c3ccccc3)n1)C(=O)CCN2 (stereo not drawn) [Compound 327]
- PI3Kβ IH % @ 1 uM [1]: 73.4%
- IC50 [1]: 250 nM
- PI3Kγ IH % @ 1 uM [2]: 97.2%
- IC50 [2]: 1 nM
- PI3Kδ IH % @ 1 uM [3]: 99.5%
- IC50 [3]: 2 nM

SMILES: Nc1nc(N2CCC[C@H]2c2nn3ccc(Cl)c3c(=O)n2-c2ccccc2)c2cccn2n1 [Compound 331]
- PI3Kβ IH % @ 1 uM [1]: 20.9%
- PI3Kγ IH % @ 1 uM [2]: >100%
- IC50 [2]: 147 nM
- PI3Kδ IH % @ 1 uM [3]: 71.9%
- IC50 [3]: 121 nM

SMILES: Nc1nc(N2CC[C@H]2c2nn3ccc(Cl)c3c(=O)n2-c2ccccc2)c2ncccc2n1 [Compound 334]
- PI3Kβ IH % @ 1 uM [1]: 11.2%
- PI3Kγ IH % @ 1 uM [2]: 82.1%
- IC50 [2]: 68 nM
- PI3Kδ IH % @ 1 uM [3]: 25.7%

SMILES: Nc1nc(N2CCC[C@H]2c2nn3ccc(Cl)c3c(=O)n2-c2ccccc2)c2ncccc2n1 [Compound 335]
- PI3Kβ IH % @ 1 uM [1]: 17.0%
- PI3Kγ IH % @ 1 uM [2]: 69.5%
- PI3Kδ IH % @ 1 uM [3]: 48.4%

SMILES: N#Cc1c[nH]c2ncnc(N3CCC[C@H]3c3nn4ccc(Cl)c4c(=O)n3-c3ccccn3)c12 [Compound 337, (S)-4-(2-(5-chloro-4-oxo-3-(pyridin-2-yl)-3,4-dihydropyrrolo[2,1-f][1,2,4]triazin-2-yl)pyrrolidin-1-yl)-7H-pyrrolo[2,3-d]pyrimidine-5-carbonitrile]
- PI3Kβ IH % @ 1 uM [1]: 93.2%
- IC50 [1]: 21 nM
- PI3Kγ IH % @ 1 uM [2]: >100%
- IC50 [2]: 5 nM
- PI3Kδ IH % @ 1 uM [3]: 99.2%
- IC50 [3]: 1 nM

SMILES: CC(=O)c1c[nH]c2ncnc(N3CCC[C@H]3c3nn4ccc(Cl)c4c(=O)n3-c3ccccn3)c12 [Compound 340]
- PI3Kβ IH % @ 1 uM [1]: 76.1%
- IC50 [1]: 163 nM
- PI3Kγ IH % @ 1 uM [2]: 94.3%
- IC50 [2]: 9 nM
- PI3Kδ IH % @ 1 uM [3]: 100.0%
- IC50 [3]: 1 nM

SMILES: Cc1cccc(-n2c([C@@H]3CCCN3c3ncnc4[nH]cnc34)nn3ccc(Cl)c3c2=O)n1 [Compound 342]
- PI3Kβ IH % @ 1 uM [1]: 45.2%
- PI3Kγ IH % @ 1 uM [2]: 77.1%
- IC50 [2]: 272 nM
- PI3Kδ IH % @ 1 uM [3]: 92.1%
- IC50 [3]: 38 nM

SMILES: O=c1c2c(Cl)ccn2nc([C@@H]2CCCN2c2ncnc3[nH]cnc23)n1-c1ccncn1 [Compound 344]
- PI3Kβ IH % @ 1 uM [1]: 57.3%
- PI3Kγ IH % @ 1 uM [2]: 85.5%
- IC50 [2]: 81 nM
- PI3Kδ IH % @ 1 uM [3]: 94.8%
- IC50 [3]: 85 nM

SMILES: N#Cc1c[nH]c2ncnc(N3C[C@@H](F)C[C@H]3c3nn4ccc(Cl)c4c(=O)n3-c3ccccn3)c12 [Compound 345]
- PI3Kβ IH % @ 1 uM [1]: 93.2%
- IC50 [1]: 28 nM
- PI3Kγ IH % @ 1 uM [2]: 97.1%
- IC50 [2]: 4 nM
- PI3Kδ IH % @ 1 uM [3]: >100%
- IC50 [3]: 1 nM

SMILES: N#Cc1c[nH]c2ncnc(N3C[C@@H](F)C[C@H]3c3nn4ccc(F)c4c(=O)n3-c3ccccn3)c12 [Compound 346]
- PI3Kβ IH % @ 1 uM [1]: 86.1%
- IC50 [1]: 47 nM
- PI3Kγ IH % @ 1 uM [2]: 94.1%
- IC50 [2]: 26 nM
- PI3Kδ IH % @ 1 uM [3]: >100%
- IC50 [3]: 2 nM

SMILES: N#C[C@H]1C[C@@H](c2nn3ccc(Cl)c3c(=O)n2-c2cccc(F)c2)N(c2ncnc3[nH]cnc23)C1 [Compound 347, (3S,5S)-5-(5-chloro-3-(3-fluorophenyl)-4-oxo-3,4-dihydropyrrolo[2,1-f][1,2,4]triazin-2-yl)-1-(9H-purin-6-yl)pyrrolidine-3-carbonitrile]
- PI3Kβ IH % @ 1 uM [1]: 87.8%
- IC50 [1]: 70 nM
- PI3Kγ IH % @ 1 uM [2]: 91.8%
- IC50 [2]: 13 nM
- PI3Kδ IH % @ 1 uM [3]: 98.3%
- IC50 [3]: 2 nM

SMILES: C[S@+]([O-])c1c[nH]c2ncnc(N3C[C@@H](C#N)C[C@H]3c3nn4ccc(Cl)c4c(=O)n3-c3cccc(F)c3)c12 [Compound 348, (3S,5S)-5-(5-chloro-3-(3-fluorophenyl)-4-oxo-3,4-dihydropyrrolo[2,1-f][1,2,4]triazin-2-yl)-1-(5-((S)-methylsulfinyl)-7H-pyrrolo[2,3-d]pyrimidin-4-yl)pyrrolidine-3-carbonitrile]
- PI3Kβ IH % @ 1 uM [1]: 51.2%
- PI3Kγ IH % @ 1 uM [2]: 75.6%
- IC50 [2]: 312 nM
- PI3Kδ IH % @ 1 uM [3]: 96.9%
- IC50 [3]: 39 nM

SMILES: C[S@@+]([O-])c1c[nH]c2ncnc(N3C[C@@H](C#N)C[C@H]3c3nn4ccc(Cl)c4c(=O)n3-c3cccc(F)c3)c12 [Compound 349, (3S,5S)-5-(5-chloro-3-(3-fluorophenyl)-4-oxo-3,4-dihydropyrrolo[2,1-f][1,2,4]triazin-2-yl)-1-(5-((R)-methylsulfinyl)-7H-pyrrolo[2,3-d]pyrimidin-4-yl)pyrrolidine-3-carbonitrile]
- PI3Kβ IH % @ 1 uM [1]: 29.5%
- PI3Kγ IH % @ 1 uM [2]: 76.6%
- IC50 [2]: 268 nM
- PI3Kδ IH % @ 1 uM [3]: 92.6%
- IC50 [3]: 111 nM

SMILES: N#Cc1c[nH]c2ncnc(N3C[C@@H](C#N)C[C@H]3c3nn4ccc(Cl)c4c(=O)n3-c3cccc(F)c3)c12 [Compound 350]
- PI3Kβ IH % @ 1 uM [1]: >100%
- IC50 [1]: 35 nM
- PI3Kγ IH % @ 1 uM [2]: >100%
- IC50 [2]: 4 nM
- PI3Kδ IH % @ 1 uM [3]: >100%
- IC50 [3]: 1 nM

SMILES: N#Cc1cnc(N)nc1N1C[C@@H](C#N)C[C@H]1c1nn2ccc(Cl)c2c(=O)n1-c1ccccc1 [Compound 351]
- PI3Kβ IH % @ 1 uM [1]: 89.6%
- IC50 [1]: 81 nM
- PI3Kγ IH % @ 1 uM [2]: 95.5%
- IC50 [2]: 3 nM
- PI3Kδ IH % @ 1 uM [3]: >100%
- IC50 [3]: 1 nM

SMILES: C[S+]([O-])c1n[nH]c2ncnc(N3CCC[C@H]3c3nn4ccc(Cl)c4c(=O)n3-c3ccccc3)c12 (stereo partly drawn) [Compound 352, 5-chloro-2-((2S)-1-(3-(methylsulfinyl)-1H-pyrazolo[3,4-d]pyrimidin-4-yl)pyrrolidin-2-yl)-3-phenylpyrrolo[2,1-f][1,2,4]triazin-4(3H)-one]
- PI3Kβ IH % @ 1 uM [1]: 40.7%
- PI3Kγ IH % @ 1 uM [2]: 97.2%
- IC50 [2]: 11 nM
- PI3Kδ IH % @ 1 uM [3]: >100%
- IC50 [3]: 34 nM

SMILES: C[S+]([O-])c1n[nH]c2ncnc(N3CC[C@H]3c3nn4ccc(Cl)c4c(=O)n3-c3ccccc3)c12 (stereo partly drawn) [Compound 353]
- PI3Kβ IH % @ 1 uM [1]: 14.6%
- PI3Kγ IH % @ 1 uM [2]: 79.2%
- IC50 [2]: 223 nM
- PI3Kδ IH % @ 1 uM [3]: 33.8%

SMILES: CC(O)c1cnc(N)nc1N1CC[C@H]1c1nn2ccc(Cl)c2c(=O)n1-c1ccccc1 (stereo partly drawn) [Compound 357, 2-((2S)-1-(2-amino-5-(1-hydroxyethyl)pyrimidin-4-yl)azetidin-2-yl)-5-chloro-3-phenylpyrrolo[2,1-f][1,2,4]triazin-4(3H)-one]
- PI3Kβ IH % @ 1 uM [1]: 5%
- PI3Kγ IH % @ 1 uM [2]: 66.2%
- PI3Kδ IH % @ 1 uM [3]: 37.9%
